What was measured:
S2 cells = test: Trypan blue exclusion cytotoxicity assay, S2; format: cell-based, Drosophila; details: 20 μM, one hour incubation, ± standard deviation from two measurements
Method: (§1) Live cell experiments were performed with HeLa (human), GM07373 (bovine) or S2 (Drosophila) cells. HeLa and GM07373 cells were cultured in DMEM medium supplemented with 10% fetal bovine serum, […] (Fisher Scientific, Pittsburgh, Pa.) in a 37° C. water jacketed CO2 incubator (Thermo Scientific, Waltham, Mass.). HeLa and GM07373 cells were sub-cultured using 0.25% (w/v) trypsin-EDTA (Life Technology, Carlsbad, Calif.) solution every two days. Cells were sub-cultured onto custom-made glass bottom culture dishes two days before the microscopy experiment. On the day of the microscopy experiment, the growth media was replaced with 20 μM compound 12b in serum-free DMEM for one hour. Cells were rinsed with the imaging medium (pH=7.2, 155 mM NaCl, 5 mM KCl, 2 mM CaCl2, 1 mM MgCl2, 2 mM NaH2PO4, 10 mM HEPES and 10 mM Glucose) prior to collecting microscopy images. […]
(§2) HeLa, GM07373 or S2 cells were incubated with 20 μM of the compound 12b for an hour. Cytotoxicity of the compound was measured using trypan blue exclusion assays. […] The number of viable cells that excluded the dye was counted using a hemacytometer (Hausser Bright-Line, Hausser scientific, Horsham, Pa.) and an optical microscope.

HeLa cells = test: Trypan blue exclusion cytotoxicity assay, HeLa; format: cell-based, human; details: 20 μM, one hour incubation, ± standard deviation from two measurements
Method: as §1, §2

GM07373 cells = test: Trypan blue exclusion cytotoxicity assay, GM07373; format: cell-based, bovine; details: 20 μM, one hour incubation, ± standard deviation from two measurements
Method: as §1, §2

[1] = Quantum yield of photorelease of acetic acid (ferrioxalate actinometry, 532 nm laser, LC-UV); format: physicochemical; details: for Φ (quantum yield of acetic acid release): MeOH, 532 nm ND:YAG laser, LC-UV
Method: (§3) The observed substrate release rate as a function of photolysis time is quantified by the quantum efficiency parameter (ϵΦ), which is the product of the extinction coefficient at the irradiation wavelength (ϵ) and the quantum yield (Φ). Extinction coefficients for compounds 1-6 were determined by UV-Vis spectroscopy (see Table 1).
To compute the quantum yields of photorelease (Φ), the flux of a 532 nm laser excitation beam (ND:YAG, 1st harmonic) was determined using potassium ferrioxalate actinometry. Release of acetic acid as a function of laser irradiation time in methanol was followed by quantitative LC/UV methods known in the art. Each quantum yield reported is the average of 3 separate runs. […] Additionally, repeating the quantum yield measurement for compound 2 on a different day with a different laser power setting (in triplicate) gave an identical value for the quantum yield, indicating reproducibility.
All quantum yields were carried out using a liquid-phase potassium ferrioxalate actinometer. The actinometer was prepared by mixing three volumes of 1.5 M K2C2O4 solution with one volume of 1.5 M FeCl3 solution in water, and stirring in complete darkness. The precipitated K3Fe(C2O4)3.3H2O was then recrystallized three times from hot water and dried in a current of warm air. To prepare 1 L of 0.15M K3Fe(C2O4)3.3H2O solution, 73.68 g of the precipitate was dissolved in 800 mL water; 100 mL 1.0 N sulfuric acid was added and filled to the mark with water, again in complete darkness. For all quantitative work the preparation and manipulation of the ferrioxalate solutions must be carried out in a darkroom, using a red light. The light intensity in a photochemical reaction is determined by irradiating ferrioxalate solution and monitoring the subsequent change in absorbance at 510 nm. Irradiation was conducted using 532 nm excitation from a ND:YAG laser source (1st harmonic). Autopipettes were used to ensure all volumes were accurately measured.
For each actinometric measurement a methacrylate cuvette was filled with 3 mL of 0.15 M ferrioxalate solution. The cell was placed in the sample holder, stirred and irradiated for a set period of time (0, 0.25, 0.50, 0.75, 1, 2, 3 minutes). After the allocated irradiation time the solution was transferred into a 25 mL volumetric flask, to which was added in sequence 6 mL of a developer solution (0.05 mol % phenanthroline/0.75 M acetate/0.2 M sulfuric acid), 5 mL 1 M sodium fluoride solution in water. The sample was diluted to 25 mL with water, mixed and allowed to incubate for 10 minutes. After the incubation period was complete, 3 mL of sample was transferred into 1 cm methacrylate cuvette and the absorbance (at 510 nm) read using a spectrophotometer.
Using iron sulfate standard solutions between 1.6×10^−5 M to 9.6×10^−5 M, a standard curve based on absorbance of the ferrioxalate/phenanthroline complex at 510 nm was compiled and the irradiated samples absorbances were compared to yield the concentration iron (II) cleaved via photolysis within the timescale of experiment.
The flux of the laser was calculated the following equations:
[formula] where I is the flux (Einstein/L/s), Δn is the Fe^2+ photogenerated (mole), φ is the quantum yield at 532 nm, V1 is the irradiated volume (mL), and t=irradiation time (seconds);
[formula] where V2 is the volume taken from the irradiated sample (mL), V3 is the volume after dilution for concentration determination (mL), and CT is the concentration of Fe^2+ after dilution (M); and
[formula] where abs is the absorbance at 510 nm, ϵ is the molar absorptivity (M^−1 cm^−1) and l is the path length.
Due to the low absorbance of the potassium ferrioxalate solution at 532 nm, a correction was made to account for an absorbance less than 2 (multiplied the flux by 0.0967).
For each compound, a solution of 1000 ppm was prepared using 1 mg of sample and dissolving in 1 mL methanol. […]

[2] = Fluorescence emission of compound solutions; format: physicochemical
Description: FIG. 2 is a plot of normalized fluorescence as a function of wavelength for compounds 1-6 described herein.
See, e.g., Petr Klán et al., Chem. Rev. 113: 119-191 (2013), which is incorporated by reference as if fully set forth herein. Even thought the quantum yields for compounds 1-4 are lower than those for some o-nitrobenzyl photocaged structures, this lower quantum yield is compensated by the much higher extinction coefficients of the BODIPY chromophores compared to the o-nitrobenzyl chromophore, leading to reasonable quantum efficiencies. […] While not being bound by any particular theory, it is plausible that the higher quantum yield of compound 6 occurs because the iodine atoms promote intersystem crossing to a triplet state, which are usually longer lived than […]. Given that the triplet state of the corresponding carbocation is the computed ground state by ˜5 kcal/mol, it is certainly energetically reasonable that heterolysis could occur in the triplet excited state leading to the triplet “carbocation,” similar to the phenacyl photocage derivatives described by Givens et al., Can. J. Chem. 89: 364-384 (2011), which is incorporated by reference as if fully set forth herein.

[3] = UV-Vis spectroscopy: absorption maximum and extinction coefficient; format: physicochemical
Method: as §3

| Compound | % of Viable cells (S2 cells) | % of Viable cells (HeLa cells) | % of Viable cells (GM07373 cells) | Φ (quantum yield of photorelease) ([1]; Table 1, acetic acid release, 532 nm laser, methanol, average of 3 runs) | εΦ (quantum efficiency) ([1]; Table 1, product of extinction coefficient and quantum yield) | εΦ (quantum efficiency) ([1]; Table 2) | Φ (quantum yield of acetic acid release) ([1]; Table 2, average of 3 runs) | λem ([2]; Table 1) | λem ([2]; Table 2) | λmax ([3]; Table 1) | ε ([3]; Table 1, extinction coefficient by UV-Vis spectroscopy) | ε ([3]; Table 2) | λmax ([3]; Table 2) |
| --- | --- | --- | --- | --- | --- | --- | --- | --- | --- | --- | --- | --- | --- |
| 3,5-Bis(4-(1,4,7,10-tetraoxaundecyl)styryl-1,7-dimethyl-8-(4-nitrobenzoato)pyrromethene fluoroborate [Compound 12b] | 93 ± 2% | 92 ± 5% | 92 ± 5% | – | – | – | – | – | – | – | – | – | – |
| 8-Acetoxymethyl-1,3,5,7-tetramethyl pyrromethene fluoroborate [Compound 2] | – | – | – | 9.9 ×10^−4 | 70 M⁻¹ cm⁻¹ | 70 M⁻¹ cm⁻¹ | 9.9 ×10^−4 | 526 nm | 526 nm | 515 nm | 71000 M⁻¹ cm⁻¹ | 71000 M⁻¹ cm⁻¹ | 515 nm |
| COc1ccc(/C=C/c2cc(C)c3n2[B-](F)(F)[N+]2=C(C)C=C(C)C2=C3COC(C)=O)cc1 [Compound 7, 8-Acetoxymethyl-3-(4-methoxy)styryl-1,5,7-trimethyl pyrromethene fluoroborate] | – | – | – | – | – | 6.0 M⁻¹ cm⁻¹ | 9.8 ×10^−4 | – | 607 nm | – | – | 61000 M⁻¹ cm⁻¹ | 586 nm |
| CC(=O)OCC1=C2C(C)=CC(C)=[N+]2[B-](F)(F)n2c(C=Cc3ccc(N(C)C)cc3)cc(C)c21 [Compound 8, 8-Acetoxymethyl-3-(4-dimethylamino)styryl-1,5,7-trimethyl pyrromethene fluoroborate] | – | – | – | – | – | 4.1 M⁻¹ cm⁻¹ | 6.9 ×10^−4 | – | 650 nm | – | – | 60000 M⁻¹ cm⁻¹ | 633 nm |
| CC(=O)OCC1=C2C(C)=CC(C=Cc3ccccc3)=[N+]2[B-](F)(F)n2c(C=Cc3ccccc3)cc(C)c21 [Compound 9, 8-Acetoxymethyl-3,5-bisstyryl-1,7-dimethyl pyrromethene fluoroborate] | – | – | – | – | – | 2.9 M⁻¹ cm⁻¹ | 4.5 ×10^−4 | – | 656 nm | – | – | 65000 M⁻¹ cm⁻¹ | 640 nm |
| COc1ccc(/C=C/C2=[N+]3C(=C(COC(C)=O)c4c(C)cc(/C=C/c5ccc(OC)cc5)n4[B-]3(F)F)C(C)=C2)cc1 [Compound 10a, 8-Acetoxymethyl-3,5-bis(4-methoxy)styryl-1,7-dimethyl pyrromethene fluoroborate] | – | – | – | – | – | 2.7 M⁻¹ cm⁻¹ | 4.1 ×10^−4 | – | 684 nm | – | – | 65000 M⁻¹ cm⁻¹ | 661 nm |
| COCCOCCOCCOc1ccc(C=CC2=[N+]3C(=C(CO)c4c(C)cc(C=Cc5ccc(OCCOCCOCCOC)cc5)n4[B-]3(F)F)C(C)=C2)cc1 [Compound 11b, 3,5-Bis(4-(1,4,7,10-tetraoxaundecyl)styryl-1,7-dimethyl-8-hydroxymethylpyrromethene fluoroborate] | – | – | – | – | – | – | – | – | – | – | – | 120000 M⁻¹ cm⁻¹ | 667 nm |

Reference: patent US9957498B2, “Photoremovable protecting groups and uses thereof” (Iowa State University Research Foundation, Inc., priority 2015, dated 2018)
